Patent US4526989A, “1,4-Bis (substituted-amino)-5,8-dihydroxy-anthraquinones and leuco bases thereof” (priority 1979, dated 1985)
“And” between values parts separate entries of the source, which are not always exact repeats. Equal values may be shown once. Read-outs that look alike come from different tables or passages of the source.

How the values were obtained:
[1] = tested on: lymphocytic leukemia P388; assay: Lymphocytic leukemia P388 test (intraperitoneal administration); type: in vivo, DBA/2 mice
How it was run: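 DBA/2 mice, single sex, 5-6 per group, inoculated i.p. with 10^6 P388 leukemia cells. Compounds given i.p. at various doses on days 1, 5 and 9; survival followed 30 days, reporting median survival time and treated/control (T/C) survival ratio.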

[2] = tested on: lymphocytic leukemia P388; assay: Lymphocytic leukemia P388 test (oral drug administration); type: in vivo, DBA/2 mice; details: for T/C × 100: efficacy ≥125%
Protocol: The animals used are DBA/2 mice all of one sex, weighing a minimum of 17 g. and all within a 3 gram weight range. There are 5 or 6 animals per test group. The tumor transplant is by intraperitoneal injection of 0.1 ml. of dilute ascitic fluid containing 10^6 cells of lymphocytic leukemia P388. The test compounds are administered intraperitoneally on days one, 5 and 9 (relative to tumor inoculation) at various doses. The animals are weighed and survivors are recorded on a regular basis for 30 days. The median survival time and the ratio of survival time for treated (T)/control (C) animals are calculated. […] The results of this test with representative compounds of the present invention appear in Table I. The criterion for efficacy is T/C×100≥125%.
The procedure used is the same as for the previously described test for lymphocytic leukemia P388 except that the test compounds are administered orally at various doses rather than intraperitoneally. The criterion for efficacy is T/C×100≥125%.

[3] = tested on: melanotic melanoma B16; assay: Melanotic Melanoma B16 test; type: in vivo, C57BC/6 mice
How it was run: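 C57BC/6 mice (10 per group) were implanted i.p. with B16 melanoma homogenate, then dosed i.p. on days 1–9 at various doses.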

[4] = tested on: Ridgway Osteogenic Sarcoma; assay: Ridgway Osteogenic Sarcoma; type: in vivo, AKD2 F1 /J mice; details: for % Inhibition Tumor Growth / % Showing 50% Tumor Regression / No. Without Tumors/No. Survivors / Tumor: 7 days after therapy stopped; for Median Survival / T/C: 63 days after therapy stopped
Protocol: The animals used are AKD2 F1 /J mice, all of the same sex, weighing a minimim of 17 g. and all within a three-gram weight range. There are normally 8 animals per test group. The tumor is administered subcutaneously by trocar as five 2-mm. fragments per mouse. The test compounds are administered intraperitoneally every 4 days for a total of 6 inoculations beginning on day 15 (relative to tumor inoculation) at various doses. The animals are weighed and survivors are recorded on a regular basis for 90 days. The regression of tumors is recorded in all test animals.

[5] = Mus musculus, P388, ip, read-out: T/C × 100
[6] = 60 mg./kg., administered intraperitoneally, positive control
[7] = 25 mg./kg. i.p., days 1, 5 and 9
[8] = 50 mg./kg. i.p., days 1, 5 and 9
[9] = 100 mg./kg. i.p., days 1, 5 and 9
[10] = 200 mg./kg. i.p., days 1, 5 and 9
[11] = Mus musculus, P388, ip, 25 mg./kg. i.p., days 1, 5 and 9, efficacy ≥125%, read-out: T/C × 100
[12] = Mus musculus, P388, ip, 50 mg./kg. i.p., days 1, 5 and 9, efficacy ≥125%, read-out: T/C × 100
[13] = Mus musculus, P388, ip, 100 mg./kg. i.p., days 1, 5 and 9, efficacy ≥125%, read-out: T/C × 100
[14] = 6 mg./kg. i.p., days 1 through 9
[15] = 25 mg./kg. i.p., days 1 through 9
[16] = 50 mg./kg. i.p., days 1 through 9
[17] = Mus musculus, ip, 6 mg./kg. i.p., days 1 through 9, efficacy ≥125%, read-out: T/C × 100
[18] = Mus musculus, ip, 25 mg./kg. i.p., days 1 through 9, efficacy ≥125%, read-out: T/C × 100
[19] = Mus musculus, ip, 50 mg./kg. i.p., days 1 through 9, efficacy ≥125%, read-out: T/C × 100
[20] = 12 mg./kg. i.p., days 1, 5 and 9
[21] = Mus musculus, P388, ip, 12 mg./kg. i.p., days 1, 5 and 9, efficacy ≥125%, read-out: T/C × 100

O=c1[nH]cc(F)c(=O)[nH]1 [5-Fluorouracil, reference compound]
response vs control in vivo at 40 mg/kg ([1]; Mus musculus, P388, ip, 40 mg./kg. injection, positive control, efficacy ≥125%, read-out: T/C × 100): 164% and 155%
response vs control in vivo at 60 mg/kg [1, 5]: 200%
Median Survival Time [2, 6]: 19.0 days and 20.0 days
T/C × 100 [2, 6]: 190% and 174%
response vs control in vivo at 60 mg/kg ([3]; Mus musculus, ip, 60 mg./kg. injection, positive control, efficacy ≥125%, read-out: T/C × 100): 128%

CC(CNC1=C2C(=O)c3c(O)ccc(O)c3C(=O)C2=C(NCC(C)N(C)C)CC1)N(C)C (stereo not drawn) [Leuco-1,4-bis[2-dimethylaminopropylamino]-5,8-dihydroxyanthraquinone]
Median Survival Time ([1]; 12.5 mg./kg. i.p., days 1, 5 and 9): 11.0 days
Median Survival Time [1, 7]: 13.0 days
Median Survival Time [1, 8]: 14.0 days
Median Survival Time [1, 9]: 15.0 days
Median Survival Time [1, 10]: 18.0 days
response vs control in vivo at 200 mg/kg [1, 5]: 200%
response vs control in vivo at 12.5 mg/kg ([1]; Mus musculus, P388, ip, 12.5 mg./kg. i.p., days 1, 5 and 9, efficacy ≥125%, read-out: T/C × 100): 122%
response vs control in vivo at 25 mg/kg [1, 11]: 144%
response vs control in vivo at 50 mg/kg [1, 12]: 156%
response vs control in vivo at 100 mg/kg [1, 13]: 167%
Median Survival Time [3, 14]: 19.5 days
Median Survival Time ([3]; 12.5 mg./kg. i.p., days 1 through 9): 20.5 days
Median Survival Time [3, 15]: 24.5 days
Median Survival Time [3, 16]: 28.5 days
Median Survival Time ([3]; 100 mg./kg. i.p., days 1 through 9): 21.0 days
response vs control in vivo at 6 mg/kg [3, 17]: 115%
response vs control in vivo at 12.5 mg/kg ([3]; Mus musculus, ip, 12.5 mg./kg. i.p., days 1 through 9, efficacy ≥125%, read-out: T/C × 100): 121%
response vs control in vivo at 25 mg/kg [3, 18]: 144%
response vs control in vivo at 50 mg/kg [3, 19]: 168%
response vs control in vivo at 100 mg/kg ([3]; Mus musculus, ip, 100 mg./kg. i.p., days 1 through 9, efficacy ≥125%, read-out: T/C × 100): 124%

CCN(CC)CCNC1=C2C(=O)c3c(O)ccc(O)c3C(=O)C2=C(NCCN(CC)CC)CC1 [Leuco-1,4-bis[(2-diethylaminoethyl)amino]-5,8-dihydroxyanthraquinone]
Median Survival Time [1, 20]: 12.0 days
Median Survival Time [1, 7]: 13.0 days
Median Survival Time [1, 8]: 15.0 days
Median Survival Time [1, 9]: 17.0 days
Median Survival Time [1, 10]: 17.0 days
response vs control in vivo at 12 mg/kg [1, 21]: 126%
response vs control in vivo at 25 mg/kg [1, 11]: 137%
response vs control in vivo at 50 mg/kg [1, 12]: 158%
response vs control in vivo at 100 mg/kg [1, 13]: 179%
response vs control in vivo at 200 mg/kg ([1]; Mus musculus, P388, ip, 200 mg./kg. i.p., days 1, 5 and 9, efficacy ≥125%, read-out: T/C × 100): 179%
Median Survival Time [3, 16]: 23.0 days
response vs control in vivo at 50 mg/kg [3, 19]: 139%

CN(C)CCNC1=C2C(=O)c3c(O)ccc(O)c3C(=O)C2=C(NCCN(C)C)CC1 [Leuco-1,4-bis[(2-dimethylaminoethyl)amino]-5,8-dihydroxy-anthraquinone]
Median Survival Time ([1]; 1.5 mg./kg. i.p., days 1, 5 and 9): 13.0 days
Median Survival Time ([1]; 3 mg./kg. i.p., days 1, 5 and 9): 14.5 days
Median Survival Time ([1]; 6 mg./kg. i.p., days 1, 5 and 9): 16.0 days
Median Survival Time [1, 20]: 17.5 days
Median Survival Time [1, 7]: 19.0 days
Median Survival Time [1, 8]: 24.5 days
Median Survival Time [1, 9]: 24.5 days
response vs control in vivo at 1.5 mg/kg ([1]; Mus musculus, P388, ip, 1.5 mg./kg. i.p., days 1, 5 and 9, efficacy ≥125%, read-out: T/C × 100): 130%
response vs control in vivo at 3 mg/kg ([1]; Mus musculus, P388, ip, 3 mg./kg. i.p., days 1, 5 and 9, efficacy ≥125%, read-out: T/C × 100): 145%
response vs control in vivo at 6 mg/kg ([1]; Mus musculus, P388, ip, 6 mg./kg. i.p., days 1, 5 and 9, efficacy ≥125%, read-out: T/C × 100): 160%
response vs control in vivo at 12 mg/kg [1, 21]: 175%
response vs control in vivo at 25 mg/kg [1, 11]: 190%
response vs control in vivo at 50 mg/kg [1, 12]: 245%
response vs control in vivo at 100 mg/kg [1, 13]: 245%
Median Survival Time ([2]; 12 mg./kg. oral): 12.5 days
T/C × 100 ([2]; 12 mg./kg. oral): 125%
Median Survival Time ([2]; 25 mg./kg. oral): 13.5 days
T/C × 100 ([2]; 25 mg./kg. oral): 135%
Median Survival Time ([2]; 50 mg./kg. oral): 16.0 days
T/C × 100 ([2]; 50 mg./kg. oral): 160%
Median Survival Time ([3]; 3 mg./kg. i.p., days 1 through 9): 21.0 days
Median Survival Time [3, 14]: 21.5 days
Median Survival Time ([3]; 12 mg./kg. i.p., days 1 through 9): 23.0 days
Median Survival Time [3, 15]: 25.0 days
response vs control in vivo at 3 mg/kg ([3]; Mus musculus, ip, 3 mg./kg. i.p., days 1 through 9, efficacy ≥125%, read-out: T/C × 100): 127%
response vs control in vivo at 6 mg/kg [3, 17]: 130%
response vs control in vivo at 12 mg/kg ([3]; Mus musculus, ip, 12 mg./kg. i.p., days 1 through 9, efficacy ≥125%, read-out: T/C × 100): 139%
response vs control in vivo at 25 mg/kg [3, 18]: 151%

CN(Cc1cnc2nc(N)nc(N)c2n1)c1ccc(C(=O)N[C@@H](CCC(=O)O)C(=O)O)cc1 [Methotrexate]
% Inhibition Tumor Growth ([4]; 6 mg./kg. i.p.): 36%
% Showing 50% Tumor Regression ([4]; 6 mg./kg. i.p.): 0%
No. Without Tumors/No. Survivors ([4]; 6 mg./kg. i.p.): 0/4
Tumor ([4]; 6 mg./kg. i.p.): 758 (mm.) 2
Median Survival ([4]; 6 mg./kg. i.p.): 46 days
% Inhibition Tumor Growth ([4]; 12 mg./kg. i.p.): 23%
% Showing 50% Tumor Regression ([4]; 12 mg./kg. i.p.): 0%
No. Without Tumors/No. Survivors ([4]; 12 mg./kg. i.p.): 0/5
Tumor ([4]; 12 mg./kg. i.p.): 916 (mm.) 2
Median Survival ([4]; 12 mg./kg. i.p.): 49 days
% Inhibition Tumor Growth ([4]; 25 mg./kg. i.p.): 54%
% Showing 50% Tumor Regression ([4]; 25 mg./kg. i.p.): 12%
No. Without Tumors/No. Survivors ([4]; 25 mg./kg. i.p.): 1/6
Tumor ([4]; 25 mg./kg. i.p.): 546 (mm.) 2
Median Survival ([4]; 25 mg./kg. i.p.): 52.5 days
T/C ([4]; 25 mg./kg. i.p.): 118%

CC[C@]1(O)C[C@H]2CN(CCc3c([nH]c4ccccc34)[C@@](C(=O)OC)(c3cc4c(cc3OC)N(C=O)[C@H]3[C@@](O)(C(=O)OC)[C@H](OC(C)=O)[C@]5(CC)C=CCN6CC[C@]43[C@@H]65)C2)C1 [Vincristine]
% Inhibition Tumor Growth ([4]; 0.5 mg./kg. i.p.): 93%
% Showing 50% Tumor Regression ([4]; 0.5 mg./kg. i.p.): 57%
No. Without Tumors/No. Survivors ([4]; 0.5 mg./kg. i.p.): 4/7
Tumor ([4]; 0.5 mg./kg. i.p.): 77 (mm.) 2
Median Survival ([4]; 0.5 mg./kg. i.p.): 83 days
T/C ([4]; 0.5 mg./kg. i.p.): 186%
% Inhibition Tumor Growth ([4]; 1.0 mg./kg. i.p.): 100%
% Showing 50% Tumor Regression ([4]; 1.0 mg./kg. i.p.): 100%
No. Without Tumors/No. Survivors ([4]; 1.0 mg./kg. i.p.): 6/6
Tumor ([4]; 1.0 mg./kg. i.p.): 0 (mm.) 2
Median Survival ([4]; 1.0 mg./kg. i.p.): 85 days
T/C ([4]; 1.0 mg./kg. i.p.): 191%
% Inhibition Tumor Growth ([4]; 1.5 mg./kg. i.p.): 100%
% Showing 50% Tumor Regression ([4]; 1.5 mg./kg. i.p.): 100%
No. Without Tumors/No. Survivors ([4]; 1.5 mg./kg. i.p.): 4/4
Tumor ([4]; 1.5 mg./kg. i.p.): 0 (mm.) 2
Median Survival ([4]; 1.5 mg./kg. i.p.): 68 days
T/C ([4]; 1.5 mg./kg. i.p.): 153%
